# Data from PubChem BioAssay AID2005 (Sanford-Burnham Center for Chemical Genomics, 2009).
# Calls of active or inactive are those of the source.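 The calls were made as follows: active = plate Z score at or below -3, or inhibition of at least 30% at 20 µM; inactive = the rest.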
# Test: EGFP reporter destabilization counter-screen – F442A EGFP cells, fluorescence, counter-screen for p/CIP destabilizer project, dose response (AID 2005);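 also: cells express EGFP alone from a CMV promoter as a counter screen for p/CIP-EGFP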
# Details: F442A EGFP cells, EGFP fluorescence, 16 h, stronger effect = higher value
SMILES,"inhibition (EGFP decrease, at 10 µM)",inhibition (at 20 µM)
COc1ccccc1N1CCN(CC(O)COCc2cccs2)CC1 (stereo not drawn),16.3%,8% (inactive)
C=CCC(NCc1ccco1)c1ccc(OC)cc1OC (stereo not drawn),22.1%,-5.4% (inactive)
Cc1ccc(S(=O)(=O)N(C)c2ccc(C(=O)NCc3cccnc3)cc2)cc1,-13.7%,-8.4% (inactive)
CCCC(=O)Nn1cnc2c(c1=O)C1(CCCCC1)Cc1ccccc1-2,-8.7%,4% (inactive)
O=C(Nc1nc2nc(-c3ccccc3)cc(-c3ccccc3)n2n1)c1ccco1,4.8%,5.5% (inactive)
CC(CN1CCOCC1)OC(=O)C(C)(c1ccccc1)c1ccccc1 (stereo not drawn),-14.9%,-4.6% (inactive)
Cc1cc(NC(=O)CSCC(=O)OCc2nnc(-c3ccccc3)o2)no1,-7.9%,-12.8% (inactive)
CCOc1ccc(C(=O)N2CCc3cc(OC)c(OC)cc3C2)cc1OCC,9.7%,4.7% (inactive)
O=C(NCc1ccc(Cl)cc1)C1CCN(S(=O)(=O)c2cccs2)CC1,6%,6.7% (inactive)
CCC1=C(OC(=O)N(CC)CC)N2C(=O)OC(=NCC3CC3)[C@]2(C)[C@H]2C1=CC[C@H]1C(=O)N(CC)C(=O)[C@H]12,-7.5%,-27.5% (inactive)
O=C(O)C(O)Cc1c[nH]c2ccccc12 (stereo not drawn),23.8%,19.1% (inactive)
Cc1cc(C)n(C(=O)CNc2ccccc2Cl)n1,9%,23.3% (inactive)
Cn1c(SCc2ccc(C#N)cc2)nnc1-c1ccccc1,18.5%,-12.9% (inactive)
CC(=O)c1ccc2c(c1)OCO2,5.1%,25.1% (inactive)
Cc1cc(NC(=O)CSc2ccc3nnc(-c4cccs4)n3n2)no1,10.8%,15.9% (inactive)
Cc1ccc(-c2nnc(CSc3nc(C)nc4sc(C)c(C)c34)o2)cc1,12.1%,14.3% (inactive)
COc1ccc(S(=O)(=O)Nc2cccc(-n3cnnn3)c2)cc1OC,6.4%,6.9% (inactive)
Cc1ccccc1CN1CCC(CNC(=O)Nc2ccc(F)cc2F)CC1,25.1%,20.2% (inactive)
CCOC(=O)N1CCN(c2ccc(C(C)=O)cc2F)CC1,10.1%,-6.2% (inactive)
O=C(CNC(=O)c1ccco1)NCC(=O)OCc1ccc(Cl)cc1Cl,-15.3%,6% (inactive)
COc1ccc(CCNC(=O)C2CCN(S(=O)(=O)c3cccs3)CC2)cc1OC,34.9%,25.1% (inactive)
C[C@@H](CN1C2=NC[C@H](Cc3ccc(O)cc3)N2C[C@H]1Cc1ccc(O)cc1)NC(=O)CCC1CCCCC1,19.4%,28.8% (inactive)
CCCNC(=O)Cn1c(=O)oc2ccccc21,-20.6%,8.8% (inactive)
CCC(Cc1ccccc1)NC(=O)Cn1cccc1C(=O)c1ccccc1 (stereo not drawn),9.1%,15.9% (inactive)
COc1cc(Cl)c(C)cc1NC(=O)CSc1ccc(NC(C)=O)cc1,20.2%,10.2% (inactive)
Cc1ccc(NC(=O)C(NS(=O)(=O)c2cccc3nsnc23)C(C)C)nc1 (stereo not drawn),34.6%,21.7% (inactive)
COc1cccc2[nH]c(C(=O)NCCc3ccccc3)cc12,4.4%,17.4% (inactive)

SMILES,"inhibition (EGFP decrease, at 10 µM)",inhibition (at 20 µM)
CCOC(=O)C1=C(N)Oc2cc(C)oc(=O)c2C12C(=O)N1c3c(cc(OC)cc32)C(C)=CC1(C)C (stereo not drawn),-0.3%,5.1% (inactive)
O=C(NC(=S)NCCc1ccccc1)c1ccco1,9.7%,-5.7% (inactive)
CCOC(=O)C(OC(=O)c1sc(=S)n(C)c1C)C(C)=O (stereo not drawn),27.1%,35.7%
COCC(=O)N1CCCN(c2nc3c(C)cccc3cc2C#N)CC1,7.6%,-0.8% (inactive)
CC(OC(=O)C1CSC2(c3ccc(F)cc3)CCC(=O)N12)C(=O)NC(N)=O (stereo not drawn),48.2%,-5.1% (inactive)
CCOC(=O)c1oc2ccccc2c1N,12.3%,19.4% (inactive)
O=C(Nc1ccc(F)cc1)Nc1nnc(-c2ccco2)s1,12%,-2.8% (inactive)
Cc1ccc(NC2CCCN(C(=O)c3ccccc3-c3ncc[nH]3)C2)cc1C (stereo not drawn),-12.3%,21.4% (inactive)
O=S(=O)(Nc1cc(Sc2ncn[nH]2)c(O)c2ccccc12)c1ccccc1,38.3%,2.2% (inactive)
O=C(CN1CCC(n2nnc3cc(F)ccc32)CC1)NC1CC1,-7.1%,-1.4% (inactive)
CCCc1nc(NCC2CCCO2)c2nnn(Cc3ccccc3)c2n1 (stereo not drawn),39%,12.1% (inactive)
Cn1c(NCc2ccco2)nc2c1c(=O)n(Cc1ccc(Cl)cc1)c(=O)n2C,17.1%,20.5% (inactive)
O=C(c1ccccc1F)N(Cc1cccnc1)Cc1cc2cc3c(cc2[nH]c1=O)OCCO3,4.2%,-4.2% (inactive)
O=C(Nc1ccc(N2CCOCC2)cc1N1CCOCC1)c1ccc(Br)cc1,32.7%,19.4% (inactive)
CCOC(=O)c1c(C)oc2c(F)c(F)c(F)c(F)c2c1=O,32.1%,19.8% (inactive)
O=C(O)c1cccc(NC(=O)C2C3C=CC(C3)C2C(=O)O)c1 (stereo not drawn),17.4%,18% (inactive)
O=[N+]([O-])c1ccc(-c2nnc(CNC3CCCC3)o2)cc1,17.3%,25.1% (inactive)
CC(=O)Nc1cc2c(cc1C(=O)c1ccc(C)cc1)OCCO2,16%,-7.7% (inactive)
COc1c[nH]n(C2CCCCC2)c(=O)c1=O,6.1%,-8.9% (inactive)
CC(C)OP(=O)(O)NC(=O)c1ccccc1,3.6%,18.5% (inactive)
Cc1cc(/N=C/N(C)C)on1,20.8%,-23.7% (inactive)
COc1ccccc1OCc1ccc(C(=O)n2nc(C)c(Cl)c2C)o1,-1.3%,2.6% (inactive)
C=CCc1cccc2cc(C(=O)NC)c(=O)oc12,12.9%,30.8%
CCOc1ccccc1OCc1nn2c(-c3ccc(C)cc3)nnc2s1,-2%,-2.8% (inactive)
COc1ccc(-n2ncc3c(SCC(=O)N4CCN(c5ccccc5OC)CC4)ncnc32)cc1,17.1%,9.4% (inactive)
O=C(NCc1ccc(Cl)cc1)c1ccc(-c2ccccc2C(F)(F)F)o1,16.5%,-4.8% (inactive)
CC1CC(C)CN(C(=O)c2ccc3c(c2NCCO)C(=O)c2ccccc2C3=O)C1 (stereo not drawn),12.8%,7.9% (inactive)

SMILES,"inhibition (EGFP decrease, at 10 µM)",inhibition (at 20 µM)
CS(=O)(=O)c1ccc(S(=O)CC(=O)OCc2ccccc2)c([N+](=O)[O-])c1 (stereo not drawn),16%,-0.6% (inactive)
COCCn1c(SCC(=O)Nc2cc(C)on2)nnc1C(C)C,-1.7%,0.9% (inactive)
Cc1nnc(NC(=O)CSc2nccn2Cc2ccc(F)cc2)s1,22.4%,16.3% (inactive)
CCN1C(=O)/C(=C2\C=Cc3cc(C)ccc3N2CC)OC1=S,-35.7%,-30.8% (inactive)
CCCCS(=O)(=O)Nc1ccc2c(c1)ncn2C1CCCCC1,27.7%,13.8% (inactive)
COc1cccc(NC(=O)N2CCC(NC(=O)C3CCCCC3)CC2)c1,13.5%,8% (inactive)
Cc1sc2nc(COC(=O)c3ccc(N4CCCC(C)C4)c([N+](=O)[O-])c3)[nH]c(=O)c2c1C (stereo not drawn),26.5%,11.2% (inactive)
Cc1ccccc1CC(=O)Nc1sc(C(C)C)cc1C(=O)N1CCOCC1,4.2%,14.3% (inactive)
O=C(COc1ccc(F)cc1)Nc1nc2c(s1)CCCC2,26.7%,24% (inactive)
Cc1cc(C(=O)Nc2cccc(O)c2)c(C)o1,7.4%,-9.8% (inactive)
CC(Oc1ccc(F)cc1)C(=O)/C=C\N(C)C (stereo not drawn),8.4%,0% (inactive)
CC(=O)c1cccc(N2Cc3ccccc3C2=NC(=O)CCl)c1,13.9%,7.4% (inactive)
CC(=O)NCCNC(=O)c1ccc(CSc2nc3ccccc3s2)cc1,15.9%,16.6% (inactive)
CC(C)c1ccc(/C=N/NC(=O)c2cccc(Cl)c2)cc1,16.9%,44.6%
COc1ccc2[nH]cc(CC(=O)O)c2c1,39.2%,23.6% (inactive)
O=C(O)C1=C[C@H](c2cccs2)C[C@H](OCc2ccc(CO)cc2)O1,3.6%,-7.3% (inactive)
COC(=O)CS(=O)(=O)c1cccc2cccnc12,38.4%,19.7% (inactive)
CCOC(=O)C1CCN(C(=O)c2cc(OCC)c(OCC)c(OCC)c2)CC1,10.4%,24.3% (inactive)
O=C(c1cc(-c2ccccc2)on1)N1CCN(C(=O)c2ccco2)CC1,18.5%,4.9% (inactive)
Cc1ccc(S(=O)(=O)CCC(=O)OCC(=O)c2c[nH]c3ccccc23)cc1,10.1%,19.8% (inactive)
Cc1ccc(S(=O)(=O)Nc2cccc(-c3cn4ccsc4n3)c2)cc1,31%,10.2% (inactive)
C[C@H](NC(=O)C1CCC(CNC(=O)[C@@H]2CCCN2C(=O)OC(C)(C)C)CC1)C(=O)O (stereo partly drawn),26.7%,20.8% (inactive)
COc1ccc(Cl)c(NC(=O)Nc2c(C)n(-c3ccccc3)c(=O)n2C)c1,8.4%,26.9% (inactive)
c1ccc2c3nnc4n(c-3nc2c1)CCCS4,17.5%,23.7% (inactive)
Cc1ccc2c(COC(=O)CNC(=O)c3ccccc3)cc(=O)oc2c1,5.9%,-2.9% (inactive)
